Reference: patent publication US12686788B2, “Coating compositions having covalently bound ultraviolet absorbers” (BASF SE, priority 2017, dated 2026)

Tests used:
Assay type in all cases: physicochemical
[1] = Percent transmission of clear coats on fused quartz plates (UV-vis); conditions: clear coat, 2.0 mils dry film on fused quartz; 2.5 weight percent UVA actives where present; with HALS 2
Procedure: Example 29. Percent Transmission Data of the Inventive Clear Coats—Clear coats were prepared of Instant Example 23 and were applied to fused quartz plates at a dry film thickness of 2.0 mils. The absorbance at various wavelengths was measured using a UV-vis spectrophotometer and the absorbance readings were converted to percent transmission (% T) at various wavelengths. In formulations where the UV absorber (UVA) was present, the concentration was 2.5 weight percent UVA actives relative to total resin solids

[2] = Multilayered coated panels, accelerated weathering: color change (ΔE); conditions: after 6000 hours Xenon Arc accelerated weathering (SAE J2527); UV absorber 2.5 wt % in 2-part polyurethane clear top coat on white base coat
Procedure: (§1) Example 10. Stabilized 2-Part Solvent-borne Polyurethane Glossy Clear Top Coat. A glossy stabilized clear top coat was prepared of the formulation below. The UV absorbers were added to the formulation at 2.5 wt % relative to total resin solids.
(§2) Example 11. Stabilized 2-Part Solvent-borne Polyurethane Glossy Clear Top Coat. A glossy stabilized clear top coat was prepared of the formulation below. The UV absorber was added at 2.5 wt % relative to total resin solids, and the hindered amine light stabilizer (HALS) was added at 1.5 wt % relative to total resin solids. The HALS was a mixture of bis (1,2,2,6,6-pentamethyl-4-piperidyl) sebacate and methyl-1,2,2,6,6-pentamethyl-4-piperidyl sebacate (“HALS 1”); bis(1-octyloxy-2,2,6,6-tetramethylpiperidin-4-yl) sebacate (“HALS 2”); or 2,4-bis[(1-cyclohexyloxy-2,2,6,6-tetramethylpiperidin-4-yl)butylamino]-6-(2-hydroxyethylamino-s-triazine (“HALS 3”).
Example 12. Multilayered Coated Panel Preparation. Aluminum test panels from ACT Test Panels LLC were purchased having a white base coat (coil coat) and no clear top coat. The panels were cut to a size of about 3 inches by 6 inches. The stabilized top coats of Examples 10 and 11 were applied to the painted test panels using draw down bars to obtain clear coat thicknesses of either 2 mils or 3 mils, wherein 1 mil is equal to 0.0254 mm or 25.4 microns. The panels were allowed to air dry for 2 days followed by oven curing at 60° C. for 60 minutes. Initial CIE Lab color values, 20 degree gloss, and 60 degree gloss were measured.
Example 14. Multilayered Coated Panels, Accelerated Weathering. […]
Initial color measurements were taken using the above parameters. The L, a, and b values were calculated using the CIE system from the reflectance values. ΔE was calculated from the L, a, and b values. Subsequent measurements were taken at specified intervals. ΔL, a, and b values were the difference between the initial values and the values at each interval. ΔE was calculated as follows: [(ΔL)^2+(Δa)^2+(Δb)^2][…]=ΔE. […]

[3] = Multilayered coated panels, accelerated weathering: 20 degree gloss retention; conditions: after 3536 hours Xenon Arc accelerated weathering (SAE J2527); UV absorber 2.5 wt % in 2-part polyurethane clear top coat on white base coat
Procedure: as §1, §2
Example 12. Multilayered Coated Panel Preparation. Aluminum test panels from ACT Test Panels LLC were purchased having a white base coat (coil coat) and no clear top coat. The panels were cut to a size of about 3 inches by 6 inches. […] Initial CIE Lab color values, 20 degree gloss, and 60 degree gloss were measured. […]

[4] = UV absorber solubility in UV curable coating composition (Example 8); conditions: approximate maximum concentration with no sign of crystallization; coating similar to Pourreau, RadTech Report 2004, Table 5
Procedure: Example 8. UV Absorber Solubility in UV Curable Coating Compositions. To measure this solubility, a number of structurally different UV absorbers were added to a typical UV curable coating composition similar to that as described by D. B. Pourreau “UV-Curable Acrylic Urethane Clearcoats for Automotive Applications,” RadTech Report, November/December, 2004, Table 5, p. 66. The test UV absorber was added to the UV curable coating composition at various concentrations. The resulting solution was placed into individual containers and sealed. Solubility was then evaluated based upon observed crystallization in the solvent. Observations started after several hours and then continued over a period of several weeks.
The solubility values given in Table 1, below, are approximate maximum concentrations where no sign of subsequent crystallization was evident. Solubilities are reported in weight percent of total UV absorber added to UV curable coating formulation. From the data in Table 1, it is clear that the inventive triazine UV absorbers are considerably more soluble in UV curable coating formulations than other triazine UV absorbers of the prior art. The use of many UV absorbers in coatings has been limited by solubility and compatibility of some UV absorber compounds. […]

[5] = UV absorber solubility in UV curable coating composition (Example 9); conditions: approximate maximum concentration with no sign of crystallization; coating similar to Pourreau, RadTech Report 2004, Table 6
Procedure: Example 9. UV Absorber Solubility in UV Curable Coating Compositions. To measure this solubility, a number of structurally different UV absorbers were added to a typical UV curable coating composition similar to that as described by D. B. Pourreau “UV-Curable Acrylic Urethane Clearcoats for Automotive Applications,” RadTech Report, November/December, 2004, Table 6, p. 68. The test UV absorber was added to the UV curable coating composition at various concentrations. The resulting solution was placed into individual containers and sealed. Solubility was then evaluated based upon observed crystallization in the solvent. Observations were initiated after several hours and continued over a period of several weeks.
The solubility values given in Table 2, below, are approximate maximum concentrations where no sign of subsequent crystallization is evident. Solubilities are reported in weight percent of total UV absorber added to UV curable coating formulation. From the data, it is clear that the instant triazine UV absorbers are considerably more soluble in UV curable coating formulations compared to other, triazine UV absorbers. The use of many UV absorbers in coatings has been limited in the past by the limited solubility and compatibility of some UV absorber compounds.

| Compound | % T at 325 nm [1] [%] | % T at 350 nm [1] [%] | % T at 375 nm [1] [%] | Delta E [2] | 20 degree gloss retention [3] [%] | Solubility in UV Curable Coating [4] [wt %] | Solubility in UV Curable Coating [5] [wt %] |
| --- | --- | --- | --- | --- | --- | --- | --- |
| 2-[4,6-bis(2,4-dimethylphenyl)-1,3,5-triazin-2-yl]-5-[2-hydroxy-3-(2-methylbutoxy)propoxy]phenol and regioisomer [Example 3, reference compound] | 0.04 | 0.10 | 36.79 |  |  |  |  |
| CC(C)CCCC(C)OC(=O)C(C)Oc1ccc(-c2nc(-c3ccc(-c4ccccc4)cc3)nc(-c3ccc(-c4ccccc4)cc3)n2)c(O)c1 (centres unmarked) [Example 4, 2-Isooctyl 2-[4-[4,6-bis(4-phenylphenyl)-1,3,5-triazin-2-yl]-3-hydroxy-phenoxy]propanoate] |  |  |  | 3.78 | 78.8 | ~0 |  |
| CCCCC(CC)COc1ccc(-c2nc(-c3ccc(-c4ccccc4)cc3)nc(-c3ccc(-c4ccccc4)cc3)n2)c(O)c1 (centres unmarked) [Example 5, 2-[4,6-Bis(4-phenylphenyl)-1,3,5-triazin-2-yl]-5-(2-ethylhexoxy)phenol, reference compound] |  |  |  | 2.79 |  |  | ~2.4 |
| CC(C)(C)CCCCCC(=O)OCC(COc1ccc(-c2nc(-c3ccc(-c4ccccc4)cc3)nc(-c3ccc(-c4ccccc4)cc3)n2)c(O)c1)OC(=O)NCCCCCNC(=O)N(CCCCCCN=C=O)C(=O)NCCCCCCN=C=O (centres unmarked) [Example 16, [3-[4-[4,6-bis(4-phenylphenyl)-1,3,5-triazin-2-yl]-3-hydroxy-phenoxy]-2-[5-[[6-isocyanatohexyl(6-isocyanatohexylcarbamoyl)carbamoyl]amino]pentyl-carbamoyloxy]propyl] neodecanoate] | 0.03 | 0.11 | 33.86 |  |  |  |  |
| CC(C)(C)CCCCCC(=O)OCC(COc1ccc(-c2nc(-c3ccc(-c4ccccc4)cc3)nc(-c3ccc(-c4ccccc4)cc3)n2)c(O)c1)OC(=O)NCCCCCCNC(=O)N(CCCCCCN=C=O)C(=O)NCCCCCCNC(=O)OC(COC(=O)CCCCCC(C)(C)C)COc1ccc(-c2nc(-c3ccc(-c4ccccc4)cc3)nc(-c3ccc(-c4ccccc4)cc3)n2)c(O)c1 (centres unmarked) [Example 17, [3-[4-[4,6-bis(4-phenylphenyl)-1,3,5-triazin-2-yl]-3-hydroxy-phenoxy]-2-[6-[[6-[[1-[[4-[4,6-bis(4-phenylphenyl)-1,3,5-triazin-2-yl]-3-hydroxy-phenoxy]methyl]-2-(neodecanoyl)oxy-ethoxy]carbonylamino]hexylcarbamoyl-(6-isocyanatohexyl)-carbamoyl]amino]hexylcarbamoyloxy]propyl] neodecanoate] | 0.02 | 0.09 | 25.29 |  |  |  |  |
| CC(C)(C)CCCCCC(=O)OCC(COc1ccc(-c2nc(-c3ccc(-c4ccccc4)cc3)nc(-c3ccc(-c4ccccc4)cc3)n2)c(O)c1)OC(=O)NCCCCCCn1c(=O)n(CCCCCCN=C=O)c(=O)n(CCCCCCN=C=O)c1=O (centres unmarked) [Example 18, [2-[6-[3,5-bis(6-isocyanatohexyl)-2,4,6-trioxo-1,3,5-triazinan-1-yl]hexylcarbamoyloxy]-3-[4-[4,6-bis(4-phenylphenyl)-1,3,5-triazin-2-yl]-3-hydroxy-phenoxy]propyl] neodecanoate] | 0.02 | 0.13 | 31.98 |  |  |  |  |
| CCCCCC(CC)OC(=O)N(CCCCCCN=C=O)C(=O)NCCCCCCNC(=O)OC(COC(=O)CCCCCC(C)(C)C)COc1ccc(-c2nc(-c3ccc(-c4ccccc4)cc3)nc(-c3ccc(-c4ccccc4)cc3)n2)c(O)c1 (centres unmarked) [Example 19, [3-[4-[4,6-bis(4-phenylphenyl)-1,3,5-triazin-2-yl]-3-hydroxy-phenoxy]-2-[6-[[1-ethylhexoxycarbonyl(6-isocyanatohexyl)carbamoyl]amino]hexylcarbamoyloxy]propyl] neodecanoate] | 0.02 | 0.10 | 27.18 |  |  |  |  |
| CCCCCCCCON1C(C)(C)CC(OC(=O)CCCCCCCCC(=O)OC2CC(C)(C)N(OCCCCCCCC)C(C)(C)C2)CC1(C)C [HALS 2, bis(1-octyloxy-2,2,6,6-tetramethylpiperidin-4-yl) sebacate, reference compound] | 84.39 | 92.31 | 93.38 |  |  |  |  |
| [3-[4-[4,6-bis(4-phenylphenyl)-1,3,5-triazin-2-yl]-3-hydroxy-phenoxy]-2-hydroxy-propyl] neo-decanoate (“UVA-3”) and [2-[4-[4,6-bis(4-phenylphenyl)-1,3,5-triazin-2-yl]-3-hydroxy-phenoxy]-3-hydroxy-propyl] neo-decanoate (“UVA-4”) [Example 2] |  |  |  | 1.89 |  | ~6.4 | ~26 |
